Entries after “also recorded” stand apart in the source; their conditions may differ.
Columns and labels:
mouse MRGPRB2 = target: T1, mouse MRGPRB2 (Mus musculus, UniProt Q3KNA1); assay: Ca2+ assay, 1321N1 astrocytoma cells expressing MRGPRB2; type: cell-based
T1 construct: expressed in transfected cells; host or cells: 1321N1 astrocytoma cells; plasmid pLVX-IRES-MRGPRB2-mCherry (Addgene #213961)
T1 sequence (Q3KNA1 1-338): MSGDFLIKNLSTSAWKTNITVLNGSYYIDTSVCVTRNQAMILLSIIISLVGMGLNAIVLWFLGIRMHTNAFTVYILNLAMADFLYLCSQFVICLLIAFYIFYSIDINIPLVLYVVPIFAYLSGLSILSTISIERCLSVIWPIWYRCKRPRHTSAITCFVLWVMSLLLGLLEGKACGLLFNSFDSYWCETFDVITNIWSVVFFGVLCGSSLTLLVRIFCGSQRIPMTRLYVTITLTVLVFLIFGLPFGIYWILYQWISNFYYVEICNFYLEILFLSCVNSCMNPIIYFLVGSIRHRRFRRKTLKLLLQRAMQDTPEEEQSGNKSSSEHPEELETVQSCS
Procedure: Therefore, we investigated whether the new MRGPRX2 antagonists could also block MRGPRB2. To this end, we used recombinant 1321N1 astrocytoma cells that stably expressed MRGPRB2, employing Ca^2+ assays, and CST-14 as MRGPRX2/MRGPRB2 agonist (EC80 value of 2000 nM).[31]
For MRGPRB2, the pKi values of the compounds were determined using 1321N1 astrocytoma cells recombinantly expressing MRGPRB2 using Ca^2+ assays versus the MRGPRX2/MRGPRB2 agonist CST-14 (EC80 value, 2000 nM). For MRGPRX2, pKi values were determined using Ca^2+ assays performed in LN229 cells recombinantly overexpressing MRGPRX2 versus the agonist CST-14 (EC80 value, 800 nM). b Concentration-response curve of PSB-172656 in Ca^2+ assays using 1321N1 astrocytoma cells expressing MRGPRB2 versus CST-14 (EC80 value, 2000 nM), Ki value 0.302 ± 0.039 nM. Data are generated from 3 biological replicates, determined in duplicates. c A representative trace showing the effect of C48/80 (30 µg/mL) on a mouse tracheal ring in isometric force measurements using a wire-myograph system. d The contraction response of mouse trachea to C48/80 (30 µg/mL) was normalized to the contraction caused by methacholine (10 µM), a muscarinic receptors agonist. […]

mouse tracheal rings = assay: Isometric force measurements of mouse tracheal rings on wire-myograph; conditions: 100 µM, 10 min pre-treatment, C48/80 30 µg/mL
Procedure: The MRGPRX2/MRGPRB2 agonist C48/80 was previously reported to induce tracheal contractions in WT mice, a response that was absent in mice with a frameshift mutation in Mrgprb2.[53] We investigated whether this effect could be blocked by PSB-172656, the potent MRGPRX2/MRGPRB2 antagonist. Therefore, the force of tracheal contractions induced by C48/80 (30 µg/mL) in mouse tracheal rings was measured using a wire myograph, confirming the compound’s ability to […] tracheal contractions (Fig. 7c, d).
Isometric force measurements were performed as described previously.[68] In detail, tracheas of C57BL/6 mice were isolated and cut into rings in cold low-calcium physiological saline solution (PSS), containing 118 mM NaCl, 5 mM KCl, 1.2 mM MgCl2, 1.5 mM NaH2PO4, 0.16 mM CaCl2, 10 mM glucose and 24 mM Hepes (pH 7.4). Rings were mounted on a wire-myograph (Multi Myograph 620 M, Danish Myo Technology, Aarhus, Denmark) and pre-stretched to 5 mN in PSS, containing 118 mM NaCl, 5 mM KCl, 1.2 mM MgCl2, 1.5 mM NaH2PO4, 1.6 mM CaCl2, 10 mM glucose, and 24 mM Hepes (pH 7.4). After equilibration for 20 min, maximal constriction was induced by methacholine (MCh, 10 μM, A2251, Sigma-Aldrich, Germany). […] Force amplitudes were always analyzed at the strongest contraction of tracheal rings. […] Statistical significance was determined by an unpaired Student’s t-test, *P < 0.05.

[1] = system: C48/80-induced hind paw edema; assay: Local allergic reaction (hind paw edema); type: in vivo, mouse; conditions: 50 mg/kg b.w., i.p.; C48/80 20 µL of 30 µg/mL into right hind paw; listed as PSB-172656
Procedure: PSB-172656 was further investigated in a mouse model of skin inflammation,[54] determining its effects on C48/80-induced hind paw edema. […] These findings indicate a strong anti-inflammatory effect of the MRGPRX2/B2 antagonist in this mouse model. Mice were given the antagonist PSB-172656 intraperitoneally at a dose of 50 mg/kg b.w. or vehicle (2% DMSO). The volume of the paws (both right (test) and left (control)) was measured using a plethysmometer (7140, UgoBasile, Italy). After 30 min, 20 µL of C48/80 (30 µg/mL) were injected into the right paw and 20 µL of 0.9% NaCl into the left paw. After 15 min, paw thickness was measured again. Mice were then killed by dislocation of cervical vertebrae. The mouse model has been described previously.[54],[69]

For `CCc1c(C(C)C)[nH]c2nc3cc(F)c(F)cc3n2c1=O` [Compound 24, 3-ethyl-7,8-difluoro-2-isopropylbenzo[4,5]imidazo [1,2-a] pyrimidin-4(1H)-one], the “fold less potent at MRGPRB2 than at human MRGPRX2” value (mouse MRGPRB2; Ca2+ assays) was 3 fold, the Ki (mouse MRGPRB2; versus CST-14 (EC80 2000 nM)) was 0.302 nM and the “effect on C48/80-induced tracheal contractions” value (mouse tracheal rings; listed as PSB-172565) was “potently blocks tracheal contractions”. The “effect on C48/80-induced tracheal contractions” value (mouse tracheal rings; listed as PSB-172656) was “effectively blocked the contractions” and the “effect on C48/80-induced paw swelling” value [1] was “significant decrease in paw swelling; also recorded: prevents or reduces edema formation”.
